Results: patent US20080255192A1, “Methods and Compositions for Selectin Inhibition” (Wyeth, priority 2007, published 2008)

What follows are compounds tested against T1, P-selectin/PSGL-1 interaction (Homo sapiens, UniProt P16109) (assay: Biacore P-Selectin/PSGL-1 Inhibition Assay (surface plasmon resonance)). Conditions: 250 uM test compound, 500 nM P.LE, immobilized PSGL-1 19ek, 10% DMSO, pH 7.4.
T1 construct: comprised of the lectin and epidermal growth factor-like (EGF) domains expressed in CHO cells; made in house; host or cells: CHO cells (P-LE)
T1 sequence (P16109 42-198): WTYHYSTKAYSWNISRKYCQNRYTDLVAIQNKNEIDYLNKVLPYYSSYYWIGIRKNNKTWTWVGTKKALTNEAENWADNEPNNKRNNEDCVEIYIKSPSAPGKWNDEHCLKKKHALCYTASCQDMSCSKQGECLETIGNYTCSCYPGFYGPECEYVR
Assay type: binding
Summary of the method: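 Biotinylated monomeric human PSGL-1 "19ek" on streptavidin chip (600–700 RU); compounds preincubated 1 h, then mixed with 500 nM P-LE (lectin-EGF, CHO-expressed) at 250 or 500 μM compound, 10% DMSO, HEPES buffer with 1 mM CaCl2/MgCl2, pH 7.4. SPR at 25 °C; percent binding inhibition from double-referenced signals.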

Row | Structure (SMILES) | inhibition at 250 µM
1 | Cc1ccc(C2(c3nc4c(C)c(C)ccc4c(C(=O)O)c3O)CC2)cc1 [Compound 113, 3-hydroxy-7,8-dimethyl-2-(1-p-tolyl-cyclopropyl)-quinoline-4-carboxylic acid] | 24%
2 | COc1ccc(C2(c3nc4c5c(ccc4c(C(=O)O)c3O)CCCC5)CC2)cc1 [Compound 51, 3-hydroxy-2-(1-(4-methoxyphenyl)cyclopropyl)-7,8,9,10-tetrahydrobenzo[h]quinoline-4-carboxylic acid] | 38%
3 | CC(C)c1cccc2c(C(=O)O)c(O)c(C(C)(C)c3ccc(Cl)cc3)nc12 [Compound 118, 2-(2-(4-Chlorophenyl)propan-2-yl)-3-hydroxy-8-isopropylquinoline-4-carboxylic acid] | ≤ 10%
4 | O=C(O)c1c(O)c(C2(c3ccc(C(F)(F)F)cc3)CC2)nc2c(-c3ccccc3)cccc12 [Compound 92, 3-hydroxy-8-phenyl-2-(1-(4-(trifluoromethyl)phenyl)cyclopropyl)quinoline-4-carboxylic acid] | ≤ 10%
5 | CC(C)c1cccc2c(C(=O)O)c(O)c(C3(c4ccc(Cl)cc4)CC3)nc12 [Compound 39, 2-(1-(4-chlorophenyl)cyclopropyl)-3-hydroxy-8-isopropylquinoline-4-carboxylic acid] | 66%
6 | O=C(O)c1c(O)c(C2(c3ccc(F)cc3)CC2)nc2cc(Cl)ccc12 [Compound 68, 7-chloro-2-(1-(4-fluorophenyl)cyclopropyl)-3-hydroxyquinoline-4-carboxylic acid] | ≤ 10%
7 | CC(c1ccccc1)c1nc2c3c(ccc2c(C(=O)O)c1O)CCCC3 (stereo not shown) [Compound 125, 3-Hydroxy-2-(1-phenylethyl)-7,8,9,10-tetrahydrobenzo[h]quinoline-4-carboxylic acid] | 90%
